Measured values as given in US20080268492A1, “Methods for Determining Optimal Techniques for Vitrification of Isolated Cells” (THE CURATORS OF THE UNIVERSITY OF MISSOURI, priority 2007, published 2008).
Read-outs that look alike come from different tables or passages of the source.

Assays:
[1] = tested on: mature (MII) human oocytes
Procedure: Measurements of oocyte permeability were conducted at different temperatures on an inverted microscope (Leica DMIRB, China). Perfusion of the oocytes was performed as previously described and validated in the laboratory Oocytes were placed in 20 μl drops of Hepes-HTF (Irvine Scientific) with 10% SSS in a petri dish covered with mineral oil (Vitrolife; Englewood, Colo., USA) to prevent evaporation. An initial photograph was taken of the oocyte in order to calculate the initial volume. […] When the perfusate merged with the 20 μl drop of base medium, photographs of the oocytes were taken at regular intervals.
The oocytes were held in place during the experiment using a glass holding pipette (Humagen Holding MPH-MED-30, I.D.-20 μm, O.D.-95˜120 μm) and micromanipulators (#RI MODEL SAS11/2-E, Integra Research Instruments, UK). For temperatures lower than ambient, a 35 mm Petri dish (Falcon 35-1008) was placed in an aluminum chamber that was cooled with circulating liquid via a cooling bath (Fisher model 9109) and pumped through the aluminum chamber using polymer tubing. The bottom of the dish was wrapped in aluminum foil and a square hole was cut in the foil to facilitate viewing the oocyte. This was performed so the dish would fit snugly in the chamber to facilitate heat transfer from the chamber to the dish. The temperature in the cooling bath was set to either −2° C. or +7° C. for the 2 cold temperatures. The actual temperature of the media in the dish was warmer than this due to heat exchange of the fluid as it circulated through the tubing and chamber.
For the third treatment, oocyte permeability was measured at ambient temperature (˜25° C.) where the perfusion took place in a 50 mm Petri dish (Falcon 35-1006) placed on the microscope stage with no heating or cooling. Finally, the warmest temperature was attained in a similar fashion but the temperature of the media was raised by using a microscope stage warmer set to 39° C. Variations in temperature of the media occurred due to day-to-day fluctuations in temperature in the laboratory. However, the actual temperature of the media for each replicate during the experiment was measured using a type-T (copper/constantan) thermocouple and an electronic thermometer (model 51 II, Fluke Corporation, Everett, Wash. USA).
After the experimental run, the oocyte was released from the holding pipette on the micromanipulator and the temperature of the medium was measured such that the thermocouple was visible in the microscope field of view, ensuring that the temperature was recorded at the exact location of the oocyte. […] The exact time of these transitions was recorded during each replication and was accounted for during the calculations to estimate the permeability parameters. […]

[2] = cited from earlier work; for concentration required to maintain a vitreous state during slow warming: aqueous solution with this compound as the only solute; for total solute required to maintain a vitreous state during cooling and warming: prior analysis
Rhesus macaque oocytes = settings: single-step addition and removal; cited from earlier work
mouse oocytes = settings: cited from earlier work
bovine oocytes = settings: 4 or 5.5 mol/L EG in a single step; cited from earlier work
[3] = Differential scanning calorimetry of EG/sucrose/saline solutions (vitreous state during cooling and warming); format: physicochemical; settings: for total concentration of the solution necessary to prevent crystallization during warming: cooling 100° C/min, warming 10° C/min; for DSC thermogram during warming: sucrose 0.3 molal with EG
Procedure: This experiment was designed to determine the amount of EG necessary to maintain an ice-free (i.e. vitreous) state during cooling to cryogenic temperatures ([…]; below the glass transition temperature of these solutions) and warming, when the sucrose concentration ranged from 0.1 to 1.1 molal (mol/kg; equivalent to 0.053 to 0.53 molar (mol/L)). In studies of the physical properties of solutions, components of the solutions are usually measured by weight, not volume. […] Furthermore, concentrations are usually reported in weight fractions (weight percent (w/w, or wt %)). These conventions were used in this experiment and references was made to the equivalent molar concentrations when comparing the results to previously published studies.
A Diamond Differential Scanning Calorimeter (DSC; Perkin-Elmer Waltham, Mass., USA) outfitted with an autosampler and CryoFill liquid nitrogen cooling system was employed for the thermal analysis. The solutions were composed of water (5 g) and NaCl (0.0045 g) to which various amounts of sucrose and EG were added. For this experiment, spectrophotometric grade (>99%) EG was utilized. All components were weighed on an analytical balance. Errors between the target and actual weight percent were less than 0.1% in all instances. To test the vitrification properties of the solutions, 5 μl (˜0.0055 grams) were loaded into standard 10 μl aluminum DSC pans (Perkin-Elmer Part # BO14-3015), and the pans were hermetically sealed. Embryo-grade water and HPLC-grade (>99.9% purity) cyclohexane were also run as calibration standards.
Analyses were conducted at a cooling rate of 100° C./min and a warming rate of 10° C./min to be consistent with previous studies. […] Random noise was estimated by determining the standard deviation of the actual signal from the expected value from the polynomial fit. When an apparent crystallization peak followed by a melting peak in the expected temperature range was noted, and the maximum point on the melting peak was beyond three standard deviations from the expected value, it was classified as a thermal event. Only when three independent solutions confirmed the absence of crystallization and melting was the solution classified as having achieved and maintained a vitreous state throughout the cooling and warming procedure.

Q: For `OCCO` [EG, ethylene glycol], which “Lp (hydraulic conductivity) in the presence of EG” value ([1]; 6.7° C) is on record?
A: Its value is 0.15 μm/(min·atm).

Q: And the “Lp (hydraulic conductivity) in the presence of EG” value ([1]; 35.7° C)?
A: The value was 1.17 μm/(min·atm).

Q: And the “activation energy for Lp” value ([1]; Arrhenius plot, 95% CI 13.19 to 15.65)?
A: The value was 14.42 kcal/mol.

Q: What about the “activation energy for Ps” value ([1]; Arrhenius plot, 95% CI 19.49 to 22.91) of the same compound?
A: The value was 21.20 kcal/mol.

Q: What about the “concentration required to maintain a vitreous state during slow warming” value [2] of the same compound?
A: The value was ~59 wt %.

Q: What about the “EG concentration necessary to maintain a vitreous state” value ([2]; cooling and warming at the DSC rates (100 and 10° C/min)) of the same compound?
A: The value was 59 wt %.

Q: And the “EG concentration that should maintain a vitreous state” value ([2]; warming rate on the order of 1×10^3° C/min)?
A: Its value is 50 wt %.

Q: What about the “EG concentration that should maintain a vitreous state” value ([2]; warming rate on the order of 1×10^4° C/min) of the same compound?
A: Its value is 48 wt %.

Q: And the “EG concentration causing membrane damage” value (Rhesus macaque oocytes)?
A: The value was ≥ 3 mol/L.

Q: What about the “effect on development compared to untreated oocytes” value (mouse oocytes; 6 mol/L EG for 5 minutes) of the same compound?
A: The value was “no effect on development”.

Q: What about the “reduction of developmental potential” value (mouse oocytes; 7 mol/L EG, 2-step exposure) of the same compound?
A: The value was 30%.

Q: And the “mean blastocyst development rate” value (mouse oocytes; 8 mol/L EG, exposure less than 1 minute, controls ~62%)?
A: The value was ~50%.

Q: And the “effect on developmental potential” value (bovine oocytes)?
A: The value was “significant reduction”.

Q: With `OC[C@H]1O[C@@](CO)(O[C@H]2O[C@H](CO)[C@@H](O)[C@H](O)[C@H]2O)[C@@H](O)[C@@H]1O` [sucrose] as the compound, how does the “total concentration of the solution necessary to prevent crystallization during warming” value (from here on “total concentration”) ([3]; 0.1 mol/kg sucrose with EG in saline) read?
A: The value was 59 wt %.

Q: And the “total concentration” value ([3]; 0.3 mol/kg sucrose with EG in saline)?
A: The value was 59 wt %.

Q: And the “total concentration” value ([3]; 0.5 mol/kg sucrose with EG in saline)?
A: The value was 59 wt %.

Q: And the “total concentration” value ([3]; 0.7 mol/kg sucrose with EG in saline)?
A: The value was 60 wt %.

Q: And the “total concentration” value ([3]; 0.9 mol/kg sucrose with EG in saline)?
A: Its value is 61 wt %.

Q: What about the “total concentration” value ([3]; 1.1 mol/kg sucrose with EG in saline) of the same compound?
A: The value was 61 wt %.

Q: What about the “DSC thermogram during warming” value ([3]; total solute 55% weight) of the same compound?
A: Its value is “crystallization and melting peaks”.

Q: And the “DSC thermogram during warming” value ([3]; total solute 59 weight %)?
A: Its value is “no evidence of crystallization and melting”.

Q: What about the “concentration required to maintain a vitreous state during slow warming” value [2] of the same compound?
A: The value was > 70 wt %.

Q: What about the “total solute required to maintain a vitreous state during cooling and warming” value (“total solute required” for short) ([2]; sucrose 0 mol/kg with EG) of the same compound?
A: The value was 59 wt %.

Q: What about the “total solute required” value ([2]; sucrose 0.1 mol/kg with EG) of the same compound?
A: Its value is 60 wt %.

Q: And the “total solute required” value ([2]; sucrose 0.5 mol/kg with EG)?
A: Its value is 61 wt %.

Q: And the “total solute required” value ([2]; sucrose 1.0 mol/kg with EG)?
A: The value was 65 wt %.
